Source: publication PMC10377775, “Identification of a Novel ERK5 (MAPK7) Inhibitor, MHJ-627, and Verification of Its Potent Anticancer Efficacy in Cervical Cancer HeLa Cells” (Current Issues in Molecular Biology, 2023)

What was measured:
ERK5 (MAPK7) [1] = biological target: T1, ERK5 (MAPK7) (Homo sapiens, UniProt Q13164); assay: FRET-based Z'-LYTE in vitro kinase assay, […] ng ERK5 (ab126913), […] ATP; format: biochemical
ERK5 (MAPK7) [2] = biological target: T1, ERK5 (MAPK7); assay: FRET-based Z'-LYTE in vitro kinase assay, single concentration ([…]), positive control; format: biochemical

T1 sequence (Q13164 2-816): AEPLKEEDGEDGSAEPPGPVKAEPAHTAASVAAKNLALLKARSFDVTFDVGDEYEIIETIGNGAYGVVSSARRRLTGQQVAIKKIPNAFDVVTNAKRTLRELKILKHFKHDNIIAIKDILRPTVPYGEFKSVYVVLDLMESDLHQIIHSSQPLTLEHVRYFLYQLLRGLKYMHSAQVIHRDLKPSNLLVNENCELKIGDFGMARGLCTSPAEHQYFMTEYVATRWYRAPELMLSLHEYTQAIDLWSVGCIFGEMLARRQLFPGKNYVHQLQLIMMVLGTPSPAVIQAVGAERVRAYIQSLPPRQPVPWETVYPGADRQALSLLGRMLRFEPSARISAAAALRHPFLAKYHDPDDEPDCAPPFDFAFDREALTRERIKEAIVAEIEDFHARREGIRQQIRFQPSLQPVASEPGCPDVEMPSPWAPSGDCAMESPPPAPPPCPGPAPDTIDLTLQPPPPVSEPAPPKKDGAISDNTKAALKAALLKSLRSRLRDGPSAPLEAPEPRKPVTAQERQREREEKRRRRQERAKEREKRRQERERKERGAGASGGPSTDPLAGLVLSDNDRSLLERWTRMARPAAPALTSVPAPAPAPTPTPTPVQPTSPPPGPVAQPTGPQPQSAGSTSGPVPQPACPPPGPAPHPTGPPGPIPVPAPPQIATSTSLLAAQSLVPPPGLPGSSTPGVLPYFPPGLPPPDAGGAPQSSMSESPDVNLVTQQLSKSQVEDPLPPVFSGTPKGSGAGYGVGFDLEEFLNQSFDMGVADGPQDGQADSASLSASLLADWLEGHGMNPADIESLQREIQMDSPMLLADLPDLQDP

IC50 (ERK5 (MAPK7) [1]) | Compound | inhibition at 5 µM (ERK5 (MAPK7) [2])
910 nM | CC(C)CCOc1cc(C(=O)C[n+]2cn(CCC(C)C)c3ccccc32)c(OCCC(C)C)c2ccccc12 [MHJ-627, 3-(2-(1,4-bis(isopentyloxy)naphthalen-2-yl)-2-oxoethyl)-1-isopentyl-1H-benzo[d]imidazol-3-ium bromide] | –
– | CCOc1cc(N2CCC(O)CC2)ccc1Nc1ncc2c(n1)N(C)c1ccccc1C(=O)N2C [XMD8-92] | 56%
